# Source: ChEMBL document CHEMBL1201862, “PubChem BioAssay data set” (2004)
# Where “and” joins values, the source holds several entries; their conditions need not be identical. Equal entries are not always repeated. Calls of active or inactive are those of the source.
# Legend:
# [1] = inhibitors of TNFa-stimulated NF-kB luciferase reporter, dose response, selectivity assay for EBV LMP1 NF-kB inhibitor project, HEK293 LMP1 reporter cells, dry powder, set 2 (AID 624369); assay type: functional
# [2] = target: Kallikrein-7 (Homo sapiens, UniProt P49862); test: Fluorescence Intensity-based biochemical primary high throughput dose response assay to identify activators of kallikrein-7 (K7) zymogen.
# Kallikrein-7, sequence (P49862 whole entry): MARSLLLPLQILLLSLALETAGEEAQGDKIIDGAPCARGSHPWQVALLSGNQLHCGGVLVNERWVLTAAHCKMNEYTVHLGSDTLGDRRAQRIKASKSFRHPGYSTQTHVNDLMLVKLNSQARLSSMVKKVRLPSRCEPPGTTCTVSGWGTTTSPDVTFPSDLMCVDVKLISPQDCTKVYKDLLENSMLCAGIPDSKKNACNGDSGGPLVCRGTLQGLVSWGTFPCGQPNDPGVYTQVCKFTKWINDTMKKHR
# [3] = Late stage counterscreen for inhibitors of Trypanosoma brucei methionyl tRNA synthetase (MetRS): Luminescence-based cell-based high throughput dose response assay to identify compounds that are cytotoxic to Jurkat human T lymphocyte cells.; assay type: functional
# [4] = HepG2 cell cytotoxicity, dose response, cytotoxicity control, luminescence plate reader, powder samples, set 2 (AID 651860); assay type: functional, cell-based
# [5] = target: Protein disulfide-isomerase (Homo sapiens, UniProt P07237); test: PDI inhibitors, insulin turbidity readout, confirmation, biochemical, dry powder samples, set 2 (AID 652146)
# Protein disulfide-isomerase, sequence (P07237 whole entry): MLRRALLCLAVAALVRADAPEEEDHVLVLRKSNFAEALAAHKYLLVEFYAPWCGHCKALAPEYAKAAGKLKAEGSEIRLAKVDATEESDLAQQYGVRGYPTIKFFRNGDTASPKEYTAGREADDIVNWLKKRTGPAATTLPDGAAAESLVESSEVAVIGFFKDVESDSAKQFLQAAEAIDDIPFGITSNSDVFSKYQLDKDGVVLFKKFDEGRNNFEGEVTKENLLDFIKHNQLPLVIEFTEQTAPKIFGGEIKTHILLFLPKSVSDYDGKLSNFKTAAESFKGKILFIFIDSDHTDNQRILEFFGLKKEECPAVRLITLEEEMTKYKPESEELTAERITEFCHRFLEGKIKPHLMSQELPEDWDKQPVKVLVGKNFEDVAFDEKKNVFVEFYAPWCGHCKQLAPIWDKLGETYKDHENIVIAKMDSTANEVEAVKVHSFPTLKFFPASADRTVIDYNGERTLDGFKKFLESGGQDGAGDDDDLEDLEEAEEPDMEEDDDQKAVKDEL
# [6] = cytotoxicity in COV362 ovarian cancer cells, dose response, cytotoxicity control for PAX8 inhibitor project, cell-based, plate reader, dry powder, SA12 (AID 743144); assay type: functional
# [7] = PAX2 cell-based inhibition, dose response, selectivity assay for PAX8 inhibitor project, plate reader, dry powder samples (AID 743048); assay type: functional;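 further: HEK293 cells carrying a WT1 promoter luciferase reporter driven by expressed Pax2; potency is for inhibition of Pax2 driven reporter signal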
# [8] = cytotoxicity in OV-90 ovarian cancer cells, dose response, PAX8 inhibitor project, cell-based, plate reader, dry powder, SA8 (AID 743149); assay type: functional
# [9] = cytotoxicity in COV434 cells, dose response, cytotoxicity control for PAX8 inhibitor project, cell-based, plate reader, dry powder, SA7 (AID 743145); assay type: functional
# [10] = A2780 ovarian cancer cell cytotoxicity, dose response, cytotoxicity control, plate reader, dry powder samples (AID 743046); assay type: functional, cell-based
# [11] = cytotoxicity dependent on PAX8, dose response, cell-based, plate reader, dry powder (AID 743049); assay type: functional
# [12] = PAX5 activity inhibitors, dose response, selectivity assay for PAX8 inhibitor project, cell-based, plate reader, dry powder samples (AID 743047); assay type: functional;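 further: HEK293 cells carrying a Pax5 driven CD19 promoter luciferase reporter; potency of inhibitors that lower reporter luminescence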
# [13] = NIH:OVCAR-3 ovarian cancer cell cytotoxicity, dose response, PAX8 inhibitor project, plate reader, dry powder samples (AID 743044); assay type: functional, cell-based
# [14] = target: T1, Disintegrin and metalloproteinase domain-containing protein 17 (Homo sapiens, UniProt P78536); test: exosite inhibitors of ADAM17, dose response, biochemical (AID 743260)
# T1 sequence (P78536 whole entry, the tested form may be a part): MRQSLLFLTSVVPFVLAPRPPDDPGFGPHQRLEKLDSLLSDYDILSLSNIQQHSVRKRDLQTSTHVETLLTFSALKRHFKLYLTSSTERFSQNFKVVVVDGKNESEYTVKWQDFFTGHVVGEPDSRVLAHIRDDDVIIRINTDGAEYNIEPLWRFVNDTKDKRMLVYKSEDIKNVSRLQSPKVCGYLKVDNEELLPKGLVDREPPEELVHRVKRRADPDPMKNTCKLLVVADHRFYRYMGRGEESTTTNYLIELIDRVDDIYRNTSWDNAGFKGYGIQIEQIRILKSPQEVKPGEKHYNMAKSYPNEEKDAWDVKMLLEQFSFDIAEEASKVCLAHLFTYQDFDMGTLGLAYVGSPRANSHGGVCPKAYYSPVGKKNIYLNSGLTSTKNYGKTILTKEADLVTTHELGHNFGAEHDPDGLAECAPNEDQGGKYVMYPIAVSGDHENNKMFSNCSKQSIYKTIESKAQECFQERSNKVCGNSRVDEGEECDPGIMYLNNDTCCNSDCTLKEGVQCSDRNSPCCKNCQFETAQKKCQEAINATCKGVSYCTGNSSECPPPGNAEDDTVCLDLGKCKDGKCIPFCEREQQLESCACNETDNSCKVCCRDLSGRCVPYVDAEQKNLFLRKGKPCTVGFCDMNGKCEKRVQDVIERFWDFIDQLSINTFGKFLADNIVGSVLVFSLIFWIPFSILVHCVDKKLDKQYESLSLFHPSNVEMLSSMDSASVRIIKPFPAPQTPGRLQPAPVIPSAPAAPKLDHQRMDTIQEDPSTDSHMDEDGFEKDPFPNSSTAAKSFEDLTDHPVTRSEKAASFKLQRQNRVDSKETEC
# [15] = ADAM10 protease inhibitors, dose response, selectivity assay for ADAM17 exosite inhibitor project, biochemical, FRET peptide substrate, recombinant human ADAM10 (AID 743259);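 further: ADAM10 enzyme cleaving a FRET peptide substrate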
# [16] = target: NS3 (Hepatitis C virus, UniProt A3EZJ3); test: HCV NS3 helicase inhibitor potency, dose response, biochemical, fluorescence polarization, ChemBridge library (AID 743264)
# NS3, sequence (A3EZJ3 whole entry): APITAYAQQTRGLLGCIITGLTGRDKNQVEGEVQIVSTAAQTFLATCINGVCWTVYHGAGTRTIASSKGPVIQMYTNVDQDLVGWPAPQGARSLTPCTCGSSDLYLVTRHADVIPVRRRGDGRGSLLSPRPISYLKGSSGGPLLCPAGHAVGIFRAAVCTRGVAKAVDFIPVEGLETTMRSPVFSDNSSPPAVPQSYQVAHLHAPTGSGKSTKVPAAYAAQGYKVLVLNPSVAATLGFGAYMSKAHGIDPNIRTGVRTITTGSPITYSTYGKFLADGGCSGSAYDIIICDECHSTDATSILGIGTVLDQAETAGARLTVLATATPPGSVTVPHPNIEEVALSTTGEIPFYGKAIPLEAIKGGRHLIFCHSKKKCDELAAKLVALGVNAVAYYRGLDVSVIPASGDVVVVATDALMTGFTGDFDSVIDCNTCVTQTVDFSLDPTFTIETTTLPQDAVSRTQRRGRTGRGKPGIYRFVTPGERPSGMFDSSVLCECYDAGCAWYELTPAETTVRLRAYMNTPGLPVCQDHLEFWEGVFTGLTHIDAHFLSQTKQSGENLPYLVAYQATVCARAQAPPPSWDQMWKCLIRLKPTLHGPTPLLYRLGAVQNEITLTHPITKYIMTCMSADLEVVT
# [17] = cytotoxicity in OVCAR8 ovarian cancer cells, dose response, PAX8 project, cell-based, plate reader, dry powder samples (AID 743197); assay type: functional; settings: OVCAR-8
# [18] = target: Paired box protein Pax-8 (Homo sapiens, UniProt Q06710); test: inhibitors of PAX8-driven TPO luciferase reporter, dose response, RMG-I cells, cherry-pick (AID 687027); assay type: functional, cell-based;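 further: luciferase reporter driven by Pax8 target thyroperoxidase promoter measured by SteadyGlo luminescence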
# Paired box protein Pax-8, sequence (Q06710 whole entry): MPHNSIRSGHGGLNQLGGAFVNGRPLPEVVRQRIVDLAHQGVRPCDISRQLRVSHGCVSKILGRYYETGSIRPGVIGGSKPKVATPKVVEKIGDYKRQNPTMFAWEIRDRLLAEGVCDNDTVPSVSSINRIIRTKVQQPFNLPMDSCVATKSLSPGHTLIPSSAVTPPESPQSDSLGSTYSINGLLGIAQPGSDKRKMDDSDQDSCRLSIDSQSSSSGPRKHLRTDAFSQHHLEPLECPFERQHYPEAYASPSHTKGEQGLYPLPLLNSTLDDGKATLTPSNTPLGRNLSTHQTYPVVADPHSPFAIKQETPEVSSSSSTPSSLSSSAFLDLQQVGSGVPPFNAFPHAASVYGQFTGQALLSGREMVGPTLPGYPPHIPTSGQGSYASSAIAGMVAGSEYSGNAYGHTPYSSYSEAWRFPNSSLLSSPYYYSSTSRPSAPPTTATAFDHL
# [19] = non-specific cell cytotoxicity, dose response, cytotoxicity control for PAX8 inhibitor project, plate reader, dry powder samples (AID 743021); assay type: functional, cell-based
# [20] = IOSE-T80 ovarian epithelial cell cytotoxicity, dose response, cytotoxicity control for PAX8 inhibitor project, plate reader, dry powder samples (AID 743045); assay type: functional, cell-based
# [21] = target: NAD-dependent protein deacylase sirtuin-5, mitochondrial (Homo sapiens, UniProt Q9NXA8); test: SIRT5 desuccinylase inhibitors, dose response, biochemical, fluorescence imaging, cherry-pick, set 5 (AID 720591);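 further: desuccinylation of succinyl peptide AMC substrate read as fluorescence after trypsin release; potency of inhibitors that lower fluorescence and may act on trypsin instead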
# NAD-dependent protein deacylase sirtuin-5, mitochondrial, sequence (Q9NXA8 whole entry): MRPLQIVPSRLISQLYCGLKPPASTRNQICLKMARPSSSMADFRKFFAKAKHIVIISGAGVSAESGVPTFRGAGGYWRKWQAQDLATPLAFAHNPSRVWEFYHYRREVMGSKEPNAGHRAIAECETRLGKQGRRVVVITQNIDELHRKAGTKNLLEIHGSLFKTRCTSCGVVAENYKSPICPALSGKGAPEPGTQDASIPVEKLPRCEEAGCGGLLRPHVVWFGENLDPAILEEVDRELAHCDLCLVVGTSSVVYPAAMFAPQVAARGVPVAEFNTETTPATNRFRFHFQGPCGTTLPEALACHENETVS
# [22] = HEK293 cell viability, dose response, counter-screen for EBV LMP1 inhibitor project, dry powder, set 2 (AID 624374); assay type: functional
# [23] = A549 cell cytotoxicity, dose response, cytotoxicity control, 24 h, CellTiter-Glo luminescence, cherry-picks (AID 1053115); assay type: functional, cell-based; settings: A549, 24 h
# [24] = test system: Streptococcus sp. 'group A'; test: growth inhibition of control SK(-) GAS strain, dose response, counter-screen for streptokinase expression inhibitor project, luminescence, kanamycin, BacTiterGlo, confirmation (AID 1900); assay type: functional, organism-based
# [25] = target: T1, Disintegrin and metalloproteinase domain-containing protein 17; test: ADAM17 protease inhibitors, dose response, counter-screen for ADAM10 exosite inhibitor project, biochemical, quenched FRET substrate (AID 743253)
# [26] = test system: Streptococcus; test: Group A Streptococcus viability loss, dose response, counter-screen for streptokinase expression inhibitor project, luminescence, BacTiterGlo (AID 1915); assay type: functional, organism-based;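 further: potency for reduction of bacterial viability or growth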
# [27] = cytotoxicity toward NIH3T3 fibroblasts, dose response, counter-screen, cell-based, ATP luminescence, mouse fibroblasts (AID 2010); assay type: functional;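 further: cells exposed to compound for about 90 hours before reading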
# [28] = inhibitors of intracellular T. cruzi replication, confirmation, NIH3T3 host cells, beta-gal luminescence (AID 2044); assay type: functional, cell-based;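 further: intracellular parasites grown in NIH/3T3 mouse fibroblasts as host cells; luminescent beta-galactosidase reporter signal from transgenic T. cruzi replicating inside host cells; inhibitors lower the luminescence signal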
# [29] = target: T2, Streptokinase A (Streptococcus pyogenes serotype M1, UniProt P10520); test: S. pyogenes streptokinase expression inhibitors, potency, dose response, plasminogen activation absorbance, OD405 (AID 1914); assay type: functional, Streptococcus pyogenes M1 GAS;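 further: secreted streptokinase activity via plasminogen activation per viability signal from cell pellet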
# T2 sequence (P10520 whole entry): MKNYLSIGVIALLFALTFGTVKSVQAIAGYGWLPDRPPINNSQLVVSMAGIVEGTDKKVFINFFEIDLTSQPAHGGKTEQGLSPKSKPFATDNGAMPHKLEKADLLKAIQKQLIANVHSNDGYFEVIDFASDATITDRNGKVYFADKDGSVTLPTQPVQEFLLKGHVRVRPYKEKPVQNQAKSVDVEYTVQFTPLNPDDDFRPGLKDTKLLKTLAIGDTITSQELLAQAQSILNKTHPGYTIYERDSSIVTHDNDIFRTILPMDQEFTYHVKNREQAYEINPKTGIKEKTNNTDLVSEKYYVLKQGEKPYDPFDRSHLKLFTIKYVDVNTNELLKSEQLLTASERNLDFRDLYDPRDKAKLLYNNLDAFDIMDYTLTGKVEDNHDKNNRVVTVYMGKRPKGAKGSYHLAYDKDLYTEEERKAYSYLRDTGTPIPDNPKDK
# [30] = growth inhibition of replicating M. tuberculosis, dose response, counter-screen, dry powder, IC90 (AID 651617); assay type: functional; settings: Mycobacterium tuberculosis
# [31] = inhibitors of non-replicating M. tuberculosis, dose response, luciferase, dry powder (AID 651620); assay type: functional; settings: Mycobacterium tuberculosis
# [32] = inhibitors of non-replicating M. tuberculosis, dose response, luciferase, dry powder (AID 651619); assay type: functional; settings: Mycobacterium tuberculosis
# [33] = A375 melanoma cell cytotoxicity, dose response, counter-screen for MITF inhibitor project, CellTiter-Glo luminescence, dry powder, set 2 (AID 624489); assay type: functional, cell-based; settings: A-375;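 further: actives are compounds lowering A375 viability meaning general cytotoxicity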
# [34] = A375 melanoma cell viability loss, dose response, counter-screen for MITF inhibitor project, CellTiter-Glo luminescence, dry powder, set 4 (AID 624364); assay type: functional, cell-based; settings: A-375;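 further: A375 melanoma cells are MITF independent so this is a counter screen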
# [35] = CEM21 cell cytotoxicity, dose response, cytotoxicity control, plate reader, dry powder (AID 687026); assay type: functional, cell-based
# [36] = HepG2 cell cytotoxicity, dose response, cytotoxicity control, ATP luminescence, cherry-pick, activator set 2 (AID 1053143); assay type: functional, cell-based
# [37] = MALME3 melanoma cell viability reduction, dose response, orthogonal assay for MITF inhibitor project, CellTiter-Glo luminescence, dry powder, set 5 (AID 651584); assay type: functional, cell-based; settings: MALME-3
# [38] = A375 melanoma cell viability loss, dose response, counter-screen for MITF modulator project, CellTiter-Glo luminescence, dry powder, set 9 (AID 651591); assay type: functional, cell-based; settings: A-375
# [39] = MITF Orthogonal Assay: SK-MEL-5 CTG Assay Measured in Cell-Based System Using Plate Reader - 2084-02_Inhibitor_Dose_DryPowder_Activity_Set7.; assay type: functional
# [40] = TRPM1 promoter luciferase reporter signal decrease, dose response, MITF inhibitor project, cell-based, SK-MEL-5, dry powder, set 9 (AID 651588); assay type: functional
# [41] = TRPM1 promoter luciferase reporter signal decrease, dose response, MITF inhibitor project, cell-based, SK-MEL-5, dry powder, set 8 (AID 624430); assay type: functional
# [42] = MITF: Counter assay: A375 proliferation Measured in Cell-Based System Using Plate Reader - 2084-03_Inhibitor_Dose_DryPowder_Activity_Set8.; assay type: functional; settings: A-375
# [43] = MITF Orthogonal Assay: MALME3 CTG Assay Measured in Cell-Based System Using Plate Reader - 2084-04_Inhibitor_Dose_DryPowder_Activity_Set6.; assay type: functional; settings: MALME-3
# [44] = SK-MEL-5 parental cell viability reduction, dose response, orthogonal assay for MITF inhibitor project, CellTiter-Glo luminescence, dry powder, set 8 (AID 651586); assay type: functional, cell-based
compound,measurement,setting,value
O=C(C[C@@H]1CC[C@H]2[C@@H](COC[C@H](O)CN2Cc2ccc(Oc3ccccc3)cc2)O1)N1CCc2ccccc2C1,AbsAC35,[1],67.78 µM
Cc1oc2c(CN3CCCCC3)c(O)ccc2c(=O)c1-c1ccc(Br)cc1,EC50,[2],9.73 µM (active)
O=C(NCc1nc2ccccc2[nH]1)C1=C[C@H](c2csc3ccccc23)C[C@H](OCCCCO)O1,IC50,[3],60.3 µM (inactive)
Cc1cc(C)c(S(=O)(=O)Nc2nc(C(C(=O)OC(C)C)C(=O)C(F)(F)F)nc3ccccc23)c(C)c1 (stereo not given),AC50,[4],> 52 µM (inactive)
C/C1=C\C[C@H](OC(=O)c2ccc(O)cc2)/C(C)=C/[C@@H](O)C(C)(C)CCC1,AC50,[5],2 µM (active)
O=C(N1CCCCC1)[C@@]1(CCS(=O)(=O)c2ccccc2)N=C(c2ccc(OCCCO)cc2)O[C@H]1c1ccccc1,AC50,[6],> 100 µM (inactive)
same,AC50,[7],49.5 µM (active)
same,AC50,[8],> 100 µM (inactive)
same,AC50,[9],> 100 µM (inactive)
same,AC50,[10],32.1 µM (active)
same,AC50,[11],87.1 µM (active)
same,AC50,[12],41.9 µM (active)
same,AC50,[13],64.6 µM (active)
COc1ccc(C(c2nnnn2Cc2ccccc2)N2CCN(C/C=C/c3ccccc3)CC2)cc1 (stereo not given),IC50,[14],> 69.5 µM (inactive)
same,IC50,[15],> 69.5 µM (inactive)
O=C1NC(=O)C(=Cc2ccc(-c3cc([N+](=O)[O-])ccc3O)o2)C(=O)N1,IC50,[16],66.1 µM (active)
COc1ccc(NC(=O)N2CCCCN3[C@@H](CO)[C@@H](c4ccc(C#Cc5ccccc5)cc4)[C@@H]3C2)cc1,AC50,[10],22.2 µM (active)
same,AC50,[17],40.1 µM (active)
same,AC50,[18],14.9 µM (active)
same,AC50,[19],42.1 µM (active)
same,AC50,[13],23.3 µM (active)
same,AC50,[20],37.1 µM (active)
CCOC(=O)C1=CCN(S(=O)(=O)c2ccc(C)cc2)C1c1cccc(Br)c1 (stereo not given),AC50,[21],> 30 µM (inactive)
CC(C)(C)[S@@+]([O-])N1Cc2cc(C(=O)NCc3ccccc3F)nc(-c3cccc(-c4cccnc4)c3)c2[C@H]1CCO,AbsAC35,[22],245.66 µM
COc1ccccc1-c1ccc2c(c1)[C@H]1[C@H](CCN1C(=O)C1CCCCC1)[C@@H](CO)N2,AC50,[10],5.38 µM (active)
same,AC50,[17],30.4 µM (active)
same,AC50,[18],9.8 µM (active)
same,AC50,[13],18.7 µM (active)
same,AC50,[23],42.1 µM (active)
COc1ccc(C(Nc2cc(C)ccn2)c2ccc3ccc(C)nc3c2O)cc1 (stereo not given),EC50,[24],14.3 µM (active)
same,IC50,[25],> 69.5 µM (inactive)
same,EC50,[26],54.9 µM (active)
same,EC50,[27],24.7 µM (active)
same,EC50,[28],2.15 µM (active)
same,EC50,[29],> 150 µM (not active)
[N-]=[N+]=NCCOCCNC(=O)CCCOc1ccc(CSc2nnc(-c3ccc(Cl)cc3)o2)nc1,IC90,[30],62 µM (active)
same,IC90,[31],8 µM (active)
same,IC90,[32],8 µM (active)
O=C1C(NS(=O)(=O)c2ccc(Br)s2)=C(N2CCOCC2)C(=O)c2ccccc21,AC50,[33],> 70 µM (inactive)
same,AC50,[34],> 70 µM (inactive)
Nc1nonc1C(=O)NCCNCc1c(OCc2ccccc2F)ccc2ccccc12,AC50,[35],> 70 µM (inactive) and 60.8 µM (active)
COc1cccc(NC(=O)c2ccc3c(c2)N(C)CCS3)c1,AC50,[36],26 µM (active)
CCN1CCN(C2=C(Nc3ccc(F)cc3F)C(=O)c3ccccc3C2=O)CC1,AC50,[37],26.3 µM (active)
same,AC50,[38],> 70 µM (inactive)
same,AC50,[39],8.99 µM (active)
same,AC50,[40],12.3 µM (active)
same,AC50,[41],2.41 µM (active)
same,AC50,[42],> 70 µM (inactive)
same,AC50,[43],26.3 µM (active)
same,AC50,[44],> 70 µM (inactive)
